Here are results for 3 molecules from US20180363057A1, “METHOD FOR EVALUATING INDIVIDUAL RADIOSENSITIVITY AND THE RISK OF ADVERSE EFFECTS” (COMMISSARIAT A L'ENERGIE ATOMIQUE ET AUX ENERGIES …, priority 2015, published 2018).

Assay type in all cases: cell-based, human
Assay [1] has as its system T4EM lymphocytes. The experiment in a line: 1,10-phenanthroline induced apoptosis of T4EM lymphocytes (AnnexinV). The conditions noted are these: for Effect on 1,10-phenanthroline induced apoptosis of T4EM lymphocytes: 80 μg/ml 1,10-phenanthroline, 2 hours, 4 μg/ml rh-sTRAIL or rh-sDR5. The method, then:
Cell suspensions at approximately 5×10^5 cells/ml (or at cell densities specified in the results section) in RPM11640/15% FCS, were irradiated at a dose rate of approximately 0.5 Gy/min with a ^137Cs-source (IBL637; Cis-Bio international/Scherring, Saclay, France), where incubated in the presence of indicated concentrations of recombinant human soluble TRAIL (rh-sTRAlL), recombinant human soluble DR5 (rh-sDR5), anti-TRAIL cytotoxicity-blocking antibody (CD253; clone RIK-2), or of 1,10-phenanthroline (stock solution of 200 mM in DMSO). All experiments described were performed with the same batch of heat inactivated FCS, previously tested for compatibility with our experimental procedures. Incubations of 18 hours or less as specified in results section were at 37° C. and 5% CO2.
(§1) Treated cells were collected and washed with AnnexinV buffer (140mM NaCl, 5mM CaCl2, 10 mM HEPES; ph7.4), and stained with 2.5 μl AnnexinV-FITC in combination with fluorochrome-conjugated CD markers in 100 ul for 30 min. […] For CD253 (mTRAIL) quantification, a compact panel designed to limit the need for compensation including AnnexinV, CD253, CD3, CD4, and CD62L was used.
Cells were washed in AnnexinV-buffer and just prior flow cytometry, 50 μL of AnnexinV-buffer containing 0.2 μg/mL Hoechst 33258 (Molecular Probes, Eugene, Oreg.), was added for dead cell exclusion. Samples were analyzed using a three-laser CyAn LX system, (DakoCytomation, Fort Collins, Colo.) or a 5-laser SORP LSRII (Becton Dickinson). […] All fluorescence signals were log-amplified, and stored in listmode. CompBeads (Becton Dickinson) were used to assist in determination of spill-over in every individual experiment (CD3-FITC was used instead of AnnexinV-FITC) and Fluorescence Minus One (FMO) controls were used where needed, in particular for mTRAIL quantifications (SortWare; Becton Dickinson or Flowjo version 9.6.4; Treestar, Ashland, Oreg.). […]
Data was analyzed using Flowio. […] Subsequently, dead cells were excluded on the basis of HO33258 fluorescence. T Lymphocytes were identified on the basis of positive PETxR (CD3) fluorescence. […]

For a further assay, the system named is mTRAIL. In words: Cell-surface mTRAIL (CD253) level by flow cytometry on T4EM lymphocytes. The conditions noted are these: 80 μg/ml.
Excerpt: TRAIL can be soluble (sTRAIL) or membrane-bound (mTRAIL)(Schneider et al., 1998, J. Exp. Med. 187:1205-1213; Wajant et al., 2001, Oncogene. 20:4101-4106). Under the experimental conditions used for radiation-induced apoptosis of T4EM lymphocytes, the levels of sTRAIL in media were below sandwich ELISA detection level (<20 pg/ml; data not shown). The inventors thus focused their study on mTRAIL. Using a monoclonal antibody panel comprising CD253, they measured the level of cell-surface mTRAIL expression by flow cytometry. A four-fold higher expression of mTRAIL was found on T4EM lymphocytes of “sensitive” compared to “resistant” samples (FIG. 3 A). […]
as §1
Cells were washed in AnnexinV-buffer and just prior flow cytometry, 50 μL of AnnexinV-buffer containing 0.2 μg/mL Hoechst 33258 (Molecular Probes, Eugene, Oreg.), was added for dead cell exclusion. Samples were analyzed using a three-laser CyAn LX system, (DakoCytomation, Fort Collins, Colo.) or a 5-laser SORP LSRII (Becton Dickinson). […]

The subject of the next assay is TRAIL-receptor DR5. In words: Expression of proapoptotic TRAIL-receptor DR5 in T4EM lymphocytes. Particulars: after 1,10-phenanthroline treatment; data not shown. The source says:
All fluorochrome-coupled monoclonal antibodies were used at saturating conditions, as determined by titrations. Anti-human CD antibodies came from Becton Dickinson ImmunoCytometry Systems (CD62L-PE, CD62L-PECy5.1, CD14-PECy5.1, CD-235a-PECy5.1, CD27-PECy5.1, CD4-PECy7, CD19-PECy7, CD45RA-APC, CD8-APCH7), from Beckman Coulter (CD3-PETxR) from Biolegend (CD253/TRAIL-PE, CD62L- BV421, CD3-BV605), or from R&D Systems (CD262/DR5-APC). Recombinant human soluble TRAIL (rh-sTRAIL) and recombinant human soluble DR5 ([…] was from R&D Systems, AnnexinV-FITC from Becton Dickinson, and 1,10-phenanthroline from Sigma-Aldrich.

The test system of assay [2] is T4EM lymphocytes. In words: Radiation-induced apoptosis of T4EM lymphocytes (AnnexinV labeling, flow cytometry). The conditions noted are these: 0.4 μg/ml rh-sTRAIL, 18 hours after irradiation at 0, 0.5, 1, 2 Gy.
Excerpt: The sensitivity of subpopulations of human T-lymphocytes to ionizing radiation-induced apoptosis was quantified eighteen hours after irradiation (0-2 Gy) of PBMC samples of healthy blood donors using the previously defined radio sensitivity assay based on immunophenotyping and AnnexinV-labeling. […] Exponential regression coefficients of dose-survival curves were used to classify human PBMC samples according to the radio sensitivity of their T4EM lymphocyte subpopulation, and “sensitive” and “resistant” samples were defined at the two ends of the T4EM radio sensitivity phenotype distribution. […]
as §1
Cells were washed in AnnexinV-buffer and just prior flow cytometry, 50 μL of AnnexinV-buffer containing 0.2 μg/mL Hoechst 33258 (Molecular Probes, Eugene, Oreg.), was added for dead cell exclusion. Samples were analyzed using a three-laser CyAn LX system, (DakoCytomation, Fort Collins, Colo.) or a 5-laser SORP LSRII (Becton Dickinson). […] All fluorescence signals were log-amplified, and stored in listmode. […]
Background: Flow cytometry measures light scatter and fluorescence of single cells or particles in a stream.

“rh-sDR5: recombinant human soluble DR5 receptor”: the “Effect on 1,10-phenanthroline induced apoptosis of T4EM lymphocytes” value in the assay on T4EM lymphocytes [1] was “inhibited”.
With `c1cnc2c(c1)ccc1cccnc12` [1,10-phenanthroline], the “Induction of apoptosis in T4EM lymphocytes” value with T4EM lymphocytes [1] (80 μg/ml, two hours, no irradiation) is given as “rapid induction of apoptosis”. In addition, the “mTRAIL level in treated "resistant" samples versus untreated "sensitive" samples” value with mTRAIL (2 hours) is listed as “always remained lower”. Moreover, in the assay on mTRAIL (two hours after addition, "resistant" and "sensitive" samples), the “mTRAIL expression in T4EM lymphocytes” value is on record as “increase of mTRAIL expression”. Further, the “Expression of proapoptotic TRAIL-receptor DR5” value in the assay on TRAIL-receptor DR5 is “increased expression”.

B1: rh-sTRAIL: recombinant human soluble TRAIL, from R&D Systems (protein, UniProt P50591 39-281, looked up)
extracellular domain: TNELKQMQDKYSKSGIACFLKEDDSYWDPNDEESMNSPCWQVKWQLRQLVRKMILRTSEETISTVQEKQQNISPLVRERGPQRVAAHITGTRGRSNTLSSPNSKNEKALGRKINSWESSRSGHSFLSNLHLRNGELVIHEKGFYYIYSQTYFRFQEEIKENTKNDKQMVQYIYKYTSYPDPILLMKSARNSCWSKDAEYGLYSIYQGGIFELKENDRIFVSVTNEHLIDMDHEASFFGAFLVG
modifications: extracellular domain
notes: recombinant human soluble TRAIL, from R&D Systems
Take B1: the “Effect on autocrine pro-apoptotic mode of action of mTRAIL in irradiated T4EM lymphocytes” value in the assay on T4EM lymphocytes [2] is reported as “abolished”. In the assay with T4EM lymphocytes [1], the “Effect on 1,10-phenanthroline induced apoptosis of T4EM lymphocytes” value is on record as “inhibited”.
